Measured values from patent EP2257297B1, “COMPOUNDS FOR USE IN THE TREATMENT OF ACNE, SEBORRHOEA AND SEBHORROEIC DERMATITIS, OR FOR REDUCING SEBUM SECRETION” (priority 2008, dated 2009).

target: T1, human MC5R (Homo sapiens, UniProt P33032); assay: Human MC5R radioligand binding assay ([125I] NDP-MSH displacement, hMC5R membranes); settings: hMC5R assay as in Example 102; compounds tested as trifluoroacetate or hydrochloride salts, or as free base
T1 construct: purchased Perkin Elmer RBXMC5M400UA
Experimental: After incubation for 10 mins the phosphate buffer containing the iodine was added to NDP-MSH (10 ul at 1 mg/mL) in a separate eppendorf tube. This was incubated for a further 10 mins.
Resuspended membranes were kept on ice until they were added to the wells of the plate.
Assays were performed in 96 well polypropylene plates. […] This was incubated for 1 hr at 37 °C. Non-specific binding was determined with […] NDP-MSH. Plates were filtered using a Tomtec cell harvester with GF/A filters (Wallac) (presoaked in 0.6% polyethylenimine) and washed three times with 1.0 mL ice-cold wash buffer (the above incubation buffer without 1,10-phenanthroline and Complete™ protease inhibitor tablet). The filters were dried in a 37 °C oven, placed in a sample bag and 5 mL Betaplatescint (Wallac) was added. Prepared filters were counted in cassettes in a Microbeta Trilux (Wallac) for 1 min. […] Data analysis was performed using GraphPad Prism 4, employing competition binding with a single site model and a fixed Hill coefficient. The following equation was used: Y = Bottom + (Top-Bottom)/1/10^(X-logEC50), where X = log(concentration) and Y = binding to fit the data.

T1 sequence (P33032 whole entry): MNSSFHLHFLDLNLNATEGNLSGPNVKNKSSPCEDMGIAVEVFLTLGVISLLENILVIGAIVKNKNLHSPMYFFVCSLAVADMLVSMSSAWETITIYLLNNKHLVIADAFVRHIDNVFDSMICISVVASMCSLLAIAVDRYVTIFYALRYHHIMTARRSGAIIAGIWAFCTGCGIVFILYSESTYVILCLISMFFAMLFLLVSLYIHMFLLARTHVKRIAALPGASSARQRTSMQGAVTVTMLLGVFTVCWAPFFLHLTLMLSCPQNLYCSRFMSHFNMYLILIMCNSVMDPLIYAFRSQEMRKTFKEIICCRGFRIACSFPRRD

Structure (SMILES) | IC50
NCCCC[C@@H]1N[C@H](CNC(=O)Cc2cccc3ccccc23)CCN(Cc2ccc3ccccc3c2)C1=O [Compound 125, N-(((3S,5S)-3-(4-aminobutyl)-1-(naphthalen-2-ylmethyl)-2-oxo-1,4-diazepan-5-yl)methyl)-2-(naphthalen-1-yl)acetamide] | < 10000 nM
N=C(N)NCCC[C@@H]1N[C@H](CNC(=O)C2Cc3ccccc3C2)CCN(CC(c2ccccc2)c2ccccc2)C1=O [Compound 133, N-(((3S,5S)-1-(2,2-diphenylethyl)-3-(3-guanidinopropyl)-2-oxo-1,4-diazepan-5-yl)methyl)-2,3-dihydro-1H-indene-2-carboxamide] | < 10000 nM
N=C(N)NCCC[C@@H]1N[C@H](CNC(=O)C2CCCCC2)CCN(CC(c2ccccc2)c2ccccc2)C1=O [Compound 139, N-(((3S,5S)-1-(2,2-diphenylethyl)-3-(3-guanidinopropyl)-2-oxo-1,4-diazepan-5-yl)methyl)cyclohexanecarboxamide] | < 10000 nM
COc1ccc(C(=O)NC[C@@H]2CCN(CC(c3ccccc3)c3ccccc3)C(=O)[C@H](CCCNC(=N)N)N2)c(OC)c1 [Compound 146, N-(((3S,5S)-1-(2,2-diphenylethyl)-3-(3-guanidinopropyl)-2-oxo-1,4-diazepan-5-yl)methyl)-2,4-dimethoxybenzamide] | < 10000 nM
N=C(N)NCCC[C@@H]1N[C@H](CNC(=O)c2ccc3c(c2)OCO3)CCN(CC(c2ccccc2)c2ccccc2)C1=O [Compound 148, N-(((3S,5S)-1-(2,2-diphenylethyl)-3-(3-guanidinopropyl)-2-oxo-1,4-diazepan-5-yl)methyl)benzo[d][1,3]dioxole-5-carboxamide] | < 1000 nM
N=C(N)NCCC[C@@H]1N[C@H](CNC(=O)c2ccc3[nH]cnc3c2)CCN(CC(c2ccccc2)c2ccccc2)C1=O [Compound 149, N-(((3S,5S)-1-(2,2-diphenylethyl)-3-(3-guanidinopropyl)-2-oxo-1,4-diazepan-5-yl)methyl)-1H-benzo[d]imidazole-5-carboxamide] | < 10000 nM
N=C(N)NCCC[C@@H]1N[C@H](CNC(=O)c2ccc3[nH]nnc3c2)CCN(CC(c2ccccc2)c2ccccc2)C1=O [Compound 150, N-(((3S,5S)-1-(2,2-diphenylethyl)-3-(3-guanidinopropyl)-2-oxo-1,4-diazepan-5-yl)methyl)-1H-benzo[d][1,2,3]triazole-5-carboxamide] | < 10000 nM
N=C(N)NCCC[C@@H]1N[C@H](CNC(=O)C2CCCC2)CCN(CC(c2ccccc2)c2ccccc2)C1=O [Compound 151, N-(((3S,5S)-1-(2,2-diphenylethyl)-3-(3-guanidinopropyl)-2-oxo-1,4-diazepan-5-yl)methyl)cyclopentanecarboxamide] | < 10000 nM
N=C(N)NCCC[C@@H]1N[C@H](CNC(=O)c2cc(Cl)cc(Cl)c2)CCN(CC(c2ccccc2)c2ccccc2)C1=O [Compound 154, 3,5-dichloro-N-(((3S,5S)-1-(2,2-diphenylethyl)-3-(3-guanidinopropyl)-2-oxo-1,4-diazepan-5-yl)methyl)benzamide] | < 1000 nM
N=C(N)NCCC[C@@H]1N[C@H](CNC(=O)Cc2ccc(Cl)cc2Cl)CCN(CC(c2ccccc2)c2ccccc2)C1=O [Compound 155, 2-(2,4-dichlorophenyl)-N-(((3S,5S)-1-(2,2-diphenylethyl)-3-(3-guanidinopropyl)-2-oxo-1,4-diazepan-5-yl)methyl)acetamide] | < 1000 nM
N=C(N)NCCC[C@@H]1N[C@H](CNC(=O)Cc2ccc(Cl)c(Cl)c2)CCN(CC(c2ccccc2)c2ccccc2)C1=O [Compound 157, 2-(3,4-dichlorophenyl)-N-(((3S,5S)-1-(2,2-diphenylethyl)-3-(3-guanidinopropyl)-2-oxo-1,4-diazepan-5-yl)methyl)acetamide] | < 10000 nM
N=C(N)NCCC[C@@H]1N[C@H](CNC(=O)C23CC4CC(CC(C4)C2)C3)CCN(CC(c2ccccc2)c2ccccc2)C1=O [Compound 161, N-(((3S,5S)-1-(2,2-diphenylethyl)-3-(3-guanidinopropyl)-2-oxo-1,4-diazepan-5-yl)methyl)-adamantane-1-carboxamide] | < 10000 nM
N=C(N)NCCC[C@@H]1N[C@H](CNC(=O)COc2ccccc2)CCN(CC(c2ccccc2)c2ccccc2)C1=O [Compound 162, N-(((3S,5S)-1-(2,2-diphenylethyl)-3-(3-guanidinopropyl)-2-oxo-1,4-diazepan-5-yl)methyl)-2-phenoxyacetamide] | < 10000 nM
COc1cc2ccccc2cc1C(=O)NC[C@@H]1CCN(CC(c2ccccc2)c2ccccc2)C(=O)[C@H](CCCNC(=N)N)N1 [Compound 163, N-(((3S,5S)-1-(2,2-diphenylethyl)-3-(3-guanidinopropyl)-2-oxo-1,4-diazepan-5-yl)methyl)-3-methoxy-2-naphthamide] | < 1000 nM
N=C(N)NCCC[C@@H]1N[C@H](CNC(=O)c2ccc(Br)cc2)CCN(CC(c2ccccc2)c2ccccc2)C1=O [Compound 164, 4-bromo-N-(((3S,5S)-1-(2,2-diphenylethyl)-3-(3-guanidinopropyl)-2-oxo-1,4-diazepan-5-yl)methyl)benzamide] | < 1000 nM
N=C(N)NCCC[C@@H]1N[C@H](CNC(=O)[C@@H]2COc3ccccc3O2)CCN(CC(c2ccccc2)c2ccccc2)C1=O [Compound 165, (S)-N-(((3S,5S)-1-(2,2-diphenylethyl)-3-(3-guanidinopropyl)-2-oxo-1,4-diazepan-5-yl)methyl)-2,3-dihydrobenzo[b][1,4]dioxine-2-carboxamide] | < 1000 nM

Continued, values first:

IC50 | Structure (SMILES)
< 1000 nM | NCCCC[C@@H]1N[C@H](CNC(=O)c2ccc3ccccc3c2)CCN(CC(c2ccccc2)c2ccccc2)C1=O [Compound 126, N-(((3S,5S)-3-(4-aminobutyl)-1-(2,2-diphenylethyl)-2-oxo-1,4-diazepan-5-yl)methyl)-2-naphthamide]
< 100 nM | N=C(N)NCCC[C@@H]1N[C@H](CNC(=O)c2ccc(Cl)cc2Cl)CCN(CC(c2ccccc2)c2ccccc2)C1=O [Compound 136, 2,4-dichloro-N-(((3S,5S)-1-(2,2-diphenylethyl)-3-(3-guanidinopropyl)-2-oxo-1,4-diazepan-5-yl)methyl)benzamide]
< 1000 nM | N=C(N)NCCC[C@@H]1N[C@H](CNC(=O)c2cc(Cl)ccc2Cl)CCN(CC(c2ccccc2)c2ccccc2)C1=O [Compound 137, 2,5-dichloro-N-(((3S,5S)-1-(2,2-diphenylethyl)-3-(3-guanidinopropyl)-2-oxo-1,4-diazepan-5-yl)methyl)benzamide]
< 100 nM | N=C(N)NCCC[C@@H]1N[C@H](CNC(=O)c2cc3ccccc3[nH]2)CCN(CC(c2ccccc2)c2ccccc2)C1=O [Compound 142, N-(((3S,5S)-1-(2,2-diphenylethyl)-3-(3-guanidinopropyl)-2-oxo-1,4-diazepan-5-yl)methyl)-1H-indole-2-carboxamide]
< 1000 nM | N=C(N)NCCC[C@@H]1N[C@H](CNC(=O)CCc2ccccc2)CCN(CC(c2ccccc2)c2ccccc2)C1=O [Compound 143, N-(((3S,5S)-1-(2,2-diphenylethyl)-3-(3-guanidinopropyl)-2-oxo-1,4-diazepan-5-yl)methyl)-3-phenylpropanamide]
< 100 nM | Cc1ccc(C(=O)NC[C@@H]2CCN(CC(c3ccccc3)c3ccccc3)C(=O)[C@H](CCCNC(=N)N)N2)cc1C [Compound 144, N-(((3S,5S)-1-(2,2-diphenylethyl)-3-(3-guanidinopropyl)-2-oxo-1,4-diazepan-5-yl)methyl)-3,4-dimethylbenzamide]
< 1000 nM | CC(C)(C)c1ccc(C(=O)NC[C@@H]2CCN(CC(c3ccccc3)c3ccccc3)C(=O)[C@H](CCCNC(=N)N)N2)cc1 [Compound 145, 4-tert-butyl-N-(((3S,5S)-1-(2,2-diphenylethyl)-3-(3-guanidinopropyl)-2-oxo-1,4-diazepan-5-yl)methyl)benzamide]
< 1000 nM | N=C(N)NCCC[C@@H]1N[C@H](CNC(=O)CC2CCCCC2)CCN(CC(c2ccccc2)c2ccccc2)C1=O [Compound 147, 2-cyclohexyl-N-(((3S,5S)-1-(2,2-diphenylethyl)-3-(3-guanidinopropyl)-2-oxo-1,4-diazepan-5-yl)methyl)acetamide]
< 100 nM | N=C(N)NCCC[C@@H]1N[C@H](CNC(=O)c2ccc(Cl)c(Cl)c2)CCN(CC(c2ccccc2)c2ccccc2)C1=O [Compound 152, 3,4-dichloro-N-(((3S,5S)-1-(2,2-diphenylethyl)-3-(3-guanidinopropyl)-2-oxo-1,4-diazepan-5-yl)methyl)benzamide]
< 100 nM | COc1c(C(=O)NC[C@@H]2CCN(CC(c3ccccc3)c3ccccc3)C(=O)[C@H](CCCNC(=N)N)N2)ccc2ccccc12 [Compound 156, N-(((3S,5S)-1-(2,2-diphenylethyl)-3-(3-guanidinopropyl)-2-oxo-1,4-diazepan-5-yl)methyl)-1-methoxy-2-naphthamide]
< 100 nM | COc1ccc2cc(C(=O)NC[C@@H]3CCN(CC(c4ccccc4)c4ccccc4)C(=O)[C@H](CCCNC(=N)N)N3)ccc2c1 [Compound 158, N-(((3S,5S)-1-(2,2-diphenylethyl)-3-(3-guanidinopropyl)-2-oxo-1,4-diazepan-5-yl)methyl)-6-methoxy-2-naphthamide]
< 100 nM | N=C(N)NCCC[C@@H]1N[C@H](CNC(=O)/C=C/c2ccc(Cl)cc2Cl)CCN(CC(c2ccccc2)c2ccccc2)C1=O [Compound 160, (E)-3-(2,4-dichlorophenyl)-N-(((3S,5S)-1-(2,2-diphenylethyl)-3-(3-guanidino-propyl)-2-oxo-1,4-diazepan-5-yl)methyl)acrylamide]
